Entries after “also recorded” stand apart in the source; their conditions may differ. r = 2'-OH (RNA)
What was measured:
Format in all cases: physicochemical
[1] = Stability of RNA on the polymer film, 20% denaturing polyacrylamide gel
Experimental: • 1. preparation “base polymer mixture” • 2. sterilization • 3. preparation of film laminates • 4. drying • 5. cutting (A=0.25 cm^2) • 6. application of RNA samples on the polymer film • 7. drying of the final samples • !points 3-7 under aseptic conditions!
Stability of RNA on the film was analyzed using a 20% denaturizing polyacrylamide (PAA) gel. The experiment was repeated with a commercially available siRNA.
Stability of RNA on the film was further analyzed before and after solubilization of the film.

[2] = Stability of antisense BMP2 RNA on the film under various application and storage conditions, 20% denaturing polyacrylamide gel; conditions: for RNA degradation after storage of the dry film: 10 days of storage of the dry film at 4° C.
Experimental: A film containing the antisense RNA for BMP2 was prepared as described in Example 2 except for using PVA 4-88 instead of PVA 18-88.
The stability of the antisense BMP2 RNA was analyzed under various application conditions as indicated in FIG. 16 and the legend of FIG. 16. 10 pmol of each probe was loaded on a 20% denaturing polyacrylamide gel. The gel was run for 3 hours at 140 volt and subsequently colored with SYBR gold for 20 minutes.
The stability of labeled antisense BMP2 RNA was analyzed in comparison to unlabeled antisense BMP2 RNA under various application conditions as indicated in FIG. 17 and the legend of FIG. 17. In lanes 1 to […], 5 pmol of the probe, in lanes 4 to 6, 10 pmol of each probe were loaded on a 20% denaturing polyacrylamide gel. The gel was run for 3 hours at 140 volt and subsequently colored with ethidium bromide for 30 minutes (FIG. 17a) or excited with light of a wavelength of 630 nm and emission was measured at 675 nm (FIG. 17b). The bands of labeled BMP2 RNA in FIG. 17b correspond to the band of the unlabeled BMP2 RNA in FIG. 17a Since the unlabeled BMP2 RNA has no fluorescent marker, the bands of unlabeled BMP2 RNA are not visible in FIG. 17b.
The stability of labeled antisense BMP2 RNA was analyzed in comparison to unlabeled antisense BMP2 RNA after storage of the dry film for 10 days at 4° C. Probes were loaded on a 20% denaturing polyacrylamide gel. The gel was run for 3 hours at 140 volt and subsequently colored with ethidium bromide for 30 minutes (FIG. 18b) or excited with light of a wavelength of 630 nm and emission was measured at 675 nm (FIG. 18a). The bands of labeled BMP2 RNA in FIG. 18a correspond to the band of the unlabeled BMP2 RNA in FIG. 18b.

[3] = HPLC analysis of paclitaxel content of the coated polymer film; conditions: API-loaded film sample compared with calibration sample
Experimental: • 1. Preparation polymer mixture • 2. Preparation of film laminates • 3. Slitting of the moist laminates • 4. Coating of the moist laminates • 5. Drying at room temperature
Further, the film was analyzed for the content of paclitaxel. To this end, 5 circular samples with a size of 1 cm^2 were cut at random positions of the film and dissolved in Brij® L23-buffer/methanol (MeOH) for HPLC analysis with Hypersil ODS 150×4.6 mm as stationary phase and acetonitrile/phosphate buffer as mobile phase. The HPLC results are shown in FIG. 11 in comparison to a blank film sample and a calibration sample.

In the case of “5′ UGCGCAGAAUGAGAUGAGUUG 3′ (UGCGCAGAAUGAGAUGAGUUG; listed as RNA, chemistry not given here)”, the “influence of the film on RNA stability” value ([1]; RNA applied on PVA 18-88 film, 20% denaturing PAA gel) is reported as “no influence on the stability” and the “storage stability of RNA on the dry film” value ([1]; dried samples on the film, 4 days at 4° C.) is reported as “no influence on RNA stability”.

For “5′-AUU UCG AGU UGG CUG UUG C-3′ (antisense AUUUCGAGUUGGCUGUUGC; RNA, 3' rUrU, backbone not given here) [BMP2 RNA, antisense strand of BMP2-siRNA 2]”, the “RNA degradation after storage of the dry film” value [2] was “no RNA degradation could be observed” and the “stability of RNA after application to the film” value ([2]; PVA 4-88 film, various application conditions, compared with stock sample) was “no difference between the test sample and the stock sample; also recorded: not degraded by the film”.

For `CC(=O)O[C@H]1C(=O)[C@@]2(C)[C@H]([C@H](OC(=O)c3ccccc3)[C@]3(O)C[C@H](OC(=O)[C@H](O)[C@@H](NC(=O)c4ccccc4)c4ccccc4)C(C)=C1C3(C)C)[C@]1(OC(C)=O)CO[C@@H]1C[C@@H]2O` [paclitaxel, (2α,4α,5β,7β,10β,13α)-4,10-Bis(acetyloxy)-13-{[(2R,3S)-3-(benzoylamino)-2-hydroxy-3-phenylpropanoyl]oxy}-1,7-dihydroxy-9-oxo-5,20-epoxytax-11-en-2-yl-benzoat], the “stability of paclitaxel prepared in a film” value [3] was “can be stably prepared in a film”.

In the case of “labeled BMP2 RNA: SEQ ID NO:23 antisense BMP2 RNA labeled with the dye Atto633 attached to the 3′ end (antisense AUUUCGAGUUGGCUGUUGC; listed as RNA, chemistry not fully specified)”, the “RNA degradation after storage of the dry film” value [2] is reported as “no RNA degradation could be observed”.
